Measurements published in paper PMC6994260 (Nature chemistry, 2019).

What was measured:
[1] = target: T1, signal peptidase IB (SpsB) (Staphylococcus aureus, UniProt Q5HHB9); assay: FRET-peptide cleavage by endogenous SpsB in S. aureus membranes; type: biochemical; conditions: activator; 50 uM compound, 0.2 mg/mL total membrane protein
T1 sequence (Q5HHB9 1-191): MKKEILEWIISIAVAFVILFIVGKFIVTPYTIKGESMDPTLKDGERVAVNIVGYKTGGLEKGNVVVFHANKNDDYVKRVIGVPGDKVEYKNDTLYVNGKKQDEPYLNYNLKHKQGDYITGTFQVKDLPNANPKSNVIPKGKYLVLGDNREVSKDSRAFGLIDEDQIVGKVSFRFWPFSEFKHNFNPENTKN

[2] = target: T2, demethylmenaquinone methyltransferase (MenG) (Staphylococcus aureus, UniProt P67062); assay: MenG methylation assay in lysate; type: biochemical; conditions: inhibitor; SAM and DMK-2 as substrates, 80 min
T2 sequence (P67062 1-241): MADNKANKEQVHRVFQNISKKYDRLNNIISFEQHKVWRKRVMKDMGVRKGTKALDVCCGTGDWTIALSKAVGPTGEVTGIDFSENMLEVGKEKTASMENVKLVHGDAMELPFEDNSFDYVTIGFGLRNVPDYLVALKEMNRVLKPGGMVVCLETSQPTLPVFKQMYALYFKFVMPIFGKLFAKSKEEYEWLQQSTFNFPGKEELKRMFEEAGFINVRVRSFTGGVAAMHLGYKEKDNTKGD

[3] = target: T2, demethylmenaquinone methyltransferase (MenG); conditions: labelled compound; DMK-2 as acceptor, 80 min
[4] = target: T2, demethylmenaquinone methyltransferase (MenG); assay: LC-MS of menaquinone-2 formed in lysate; type: biochemical; conditions: S-adenosyl-L-methionine as methyl donor, 80 min

SMILES | SpsB activity (normalized) at 50 μM [1] | % MenG activity of DMSO control [2] | further results
CNC(=O)c1cc(Oc2ccc(NC(=O)Nc3ccc(Cl)c(C(F)(F)F)c3)cc2)ccn1 [SFN, sorafenib] | 1.64 ± 0.12 fold of DMSO control | SFN caused a weaker inhibition in these assays | 
O=C(Nc1ccc(Cl)c(C(F)(F)F)c1)Nc1cccc2c1OC(F)(F)O2 [1-164] | 1.42 ± 0.08 fold of DMSO control |  | 
C[S+](CC[C@H](N)C(=O)O)C[C@H]1O[C@@H](n2cnc3c(N)ncnc32)[C@H](O)[C@@H]1O (stereo partly drawn) [SAM, S-adenosyl-L-methionine] |  |  | [3H]methyl transfer to DMK-2, liquid scintillation counting [3]: radiolabelled methyl group of cofactor S-adenosyl-L-methionine
O=C(Nc1ccc2c(c1)OCO2)Nc1ccc(Cl)c(C(F)(F)F)c1 [1-159] | 1.40 ± 0.01 fold of DMSO control |  | 
O=C(Nc1ccc2c(c1)OC(F)(F)O2)Nc1ccc(Cl)c(C(F)(F)F)c1 [PK150] | 2.54 ± 0.39 fold of DMSO control | Menaquinone-2 synthesis was enhanced in MenG-overexpressing cells and again significantly inhibited by PK150 | 
CC(C)=CCC/C(C)=C/CC1=CC(=O)c2ccccc2C1=O [DMK-2, demethylmenaquinone-2] |  |  | LC-MS of menaquinone-2 formed in lysate [4]: methylation of non-naturally occurring demethylmenaquinone-2 by lysates of MenG-overexpressing and wild type S. aureus
